Measured values taken from patent US10143691B2, “Pathogenic control of apoptosis” (CSIR, priority 2014, dated 2018).
“Also recorded” adds a separate entry of the source. Like-named read-outs stand apart in the source and are kept apart here.

Key:
Format in all cases: cell-based
[1] = system: p53pSer46; assay: Immunofluorescence staining of p53pSer46 apoptotic mark; details: Ghost(3) cells, Doxorubicin 500 nM, no HIV
Protocol: (§1) For each experiment, Ghost(3) cells or IPSC-derived primary macrophages were infected or treated with 500 nM Doxorubicin on coverslips, fixed for 10 mins in fresh 4% paraformaldehyde at room temperature, then washed 3 times in PBS and permeabilised for 10 mins in ice-cold methanol at […]. Coverslips were washed once in PBS and incubated in blocking buffer (5% goat serum, 0.3% TritonX100 in PBS) for 60 mins at room temperature. Cells were incubated in primary antibody solution (1% BSA, 0.3% Triton X100 in PBS) overnight at 4° C. Double strand breaks were detected using rabbit polyclonal anti-phosphohistone H2A.X Ser139 (Cell Signaling). Activated ATM was detected using rabbit monoclonal anti-phosphoATM Ser1981 (Cell Signaling). The ability of p53 to regulate apoptosis was detected using rabbit polyclonal antiphosphop53 Ser46 (Cell Signaling). Viral p24 was detected using mouse monoclonal anti-HIV1p24 (AIDS Research and Reference Reagent Program, Division of AIDS, NIAID, NIH). HuR was detected using mouse monoclonal anti-HuR 3A2 (Santa Cruz Biotechnology). hnRNPK was detected using goat polyclonal anti-hnRNPK P20 (Santa Cruz Biotechnology). Coverslips were washed 3 times (5 mins each on an orbital shaker) with wash buffer (0.05% Tween20 in PBS), followed by incubation with secondary antibodies conjugated to either Atto550 or Atto565 or Atto647 for 60 mins at room temperature. […]

[2] = system: Ghost(3) cells
Protocol: Apoptosis was measured in Ghost(3) cells 30 hours post-infection or drug treatment using the NucView™ 488 Caspase3 Assay Kit (Biotium) in a 96 well format. Data was analysed in MATLAB using a probabilistic region method to measure cell attachment and expressed as percentage cell survival. […] An average of 3000 cells per condition were analysed with the exception of cells treated with Doxorubicin followed by HIV-infection (FIG. 3), cells transfected with lincRNAp21 overexpression constructs followed by Doxorubicin treatment, and cells transfected with full-length lincRNAp21, infected with HIV1 and treated with Nutlin3 (FIG. 25). These latter conditions ( ? ) yielded too few attached cells (<20) at 30 hours for similar analysis.
Apoptosis was measured in Ghost(3) cells 30 hours post-infection or drug treatment using the NucView™ 488 Caspase-3 Assay Kit (Biotium) in a 96 well format. Data was analysed in MATLAB using a probabilistic region method to measure cell attachment and expressed as percentage cell survival. […] An average of 3000 cells per condition were analysed with the exception of cells treated with Doxorubicin followed by HIV-infection (FIG. 27), cells transfected with lincRNA-p21 overexpression constructs followed by Doxorubicin treatment (FIG. 36), and cells transfected with full-length lincRNA-p21, infected with HIV-1 and treated with Nutlin3 (FIG. 45). These latter conditions ( ? ) yielded too few attached cells (<20) at 30 hours for similar analysis.

[3] = system: H2A.XpSer139; assay: Immunofluorescence staining of double strand breaks (H2A.XpSer139)
Protocol: (§2) For each experiment, Ghost(3) cells or IPSC-derived primary macrophages were infected or treated with 500 nM Doxorubicin on coverslips, fixed for 10 mins in fresh 4% paraformaldehyde at room temperature, then washed 3 times in PBS and permeabilised for 10 mins in ice-cold methanol at […]. Coverslips were washed once in PBS and incubated in blocking buffer (5% goat serum, 0.3% TritonX100 in PBS) for 60 mins at room temperature. Cells were incubated in primary antibody solution (1% BSA, 0.3% Triton X100 in PBS) overnight at 4° C. Double strand breaks were detected using rabbit polyclonal anti-phosphohistone H2A.X Ser139 (Cell Signaling). Activated ATM was detected using rabbit monoclonal anti-phosphoATM Ser1981 (Cell Signaling). The ability of p53 to regulate apoptosis was detected using rabbit polyclonal antiphosphop53 Ser46 (Cell Signaling). Viral p24 was detected using mouse monoclonal anti-HIV1p24 (AIDS Research and Reference Reagent Program, Division of AIDS, NIAID, NIH). HuR was detected using mouse monoclonal anti-HuR 3A2 (Santa Cruz Biotechnology). hnRNPK was detected using goat polyclonal anti-hnRNPK P20 (Santa Cruz Biotechnology). Coverslips were washed 3 times (5 mins each on an orbital shaker) with wash buffer (0.05% Tween20 in PBS), followed by incubation with secondary antibodies conjugated to either Atto550 or Atto565 or Atto647 for 60 mins at room temperature. Coverslips were washed 3 times (5 mins each on an orbital shaker) with wash buffer (0.05% Tween20 in PBS). Coverslips were incubated in equilibration buffer (0.4% glucose, 2×SCC) for 5 mins and counter stained with 1 mg/ml DAPI (4′,6-diamidino-2-phenylindole; Life Technologies). Coverslips were mounted in glox buffer (3.7 mg/ml glucose oxidase, 1 U catalase) and imaged.
(§3) For each experiment, cells were infected or treated with drugs on coverslips, fixed for 10 mins in fresh 4% paraformaldehyde at room temperature, then washed 3 times in PBS and permeabilised for 10 mins in ice-cold methanol at −20° C. Coverslips were washed once in PBS and incubated in blocking buffer (5% goat serum, 0.3% Triton-X100 in PBS) for 60 mins at room temperature. […] Double strand breaks were detected using rabbit polyclonal anti-phospho-histone H2A.X Ser139 (Cell Signaling). Activated ATM was detected using rabbit monoclonal anti-phospho-ATM Ser1981 (Cell Signaling). The ability of p53 to regulate apoptosis was detected using rabbit polyclonal anti-phospho-p53 Ser46 (Cell Signaling). Viral p24 was detected using mouse monoclonal anti-HIV-1-p24 (AIDS Research and Reference Reagent Program, Division of AIDS, NIAID, NIH). HuR was detected using mouse monoclonal anti-HuR 3A2 (Santa Cruz Biotechnology). hnRNP-K was detected using goat polyclonal anti-hnRNP-K P-20 (Santa Cruz Biotechnology). […]

[4] = system: HuR; assay: Immunofluorescence of HuR cellular location in Ghost(3) cells; details: Ghost(3) cells, Doxorubicin-treated, no HIV
Protocol: as §1, with “Biotechnology).” for “Biotechnology). Coverslips were washed 3 times (5 mins each on an orbital shaker) with wash buffer (0.05% Tween20 in PBS), followed by incubation with secondary antibodies conjugated to either Atto550 or Atto565 or Atto647 for 60 mins at room temperature.”
as §3, with “C.” for “C. Coverslips were washed once in PBS and incubated in blocking buffer (5% goat serum, 0.3% Triton-X100 in PBS) for 60 mins at room temperature.”

[5] = system: hnRNP-K; assay: Immunofluorescence of hnRNP-K cellular location in Ghost(3) cells
Protocol: as §2
For each experiment, cells were infected or treated with drugs on coverslips, fixed for 10 mins in fresh 4% paraformaldehyde at room temperature, then washed 3 times in PBS and permeabilised for 10 mins in ice-cold methanol at −20° C. Coverslips were washed once in PBS and incubated in blocking buffer (5% goat serum, 0.3% Triton-X100 in PBS) for 60 mins at room temperature. Cells were incubated in primary antibody solution (1% BSA, 0.3% Triton X-100 in PBS) overnight at 4° C. Double strand breaks were detected using rabbit polyclonal anti-phospho-histone H2A.X Ser139 (Cell Signaling). Activated ATM was detected using rabbit monoclonal anti-phospho-ATM Ser1981 (Cell Signaling). The ability of p53 to regulate apoptosis was detected using rabbit polyclonal anti-phospho-p53 Ser46 (Cell Signaling). Viral p24 was detected using mouse monoclonal anti-HIV-1-p24 (AIDS Research and Reference Reagent Program, Division of AIDS, NIAID, NIH). HuR was detected using mouse monoclonal anti-HuR 3A2 (Santa Cruz Biotechnology). hnRNP-K was detected using goat polyclonal anti-hnRNP-K P-20 (Santa Cruz Biotechnology). Coverslips were washed 3 times (5 mins each on an orbital shaker) with wash buffer (0.05% Tween-20 in PBS), followed by incubation with secondary antibodies conjugated to either Atto-550 or Atto-565 or Atto-647 for 60 mins at room temperature. Coverslips were washed 3 times (5 mins each on an orbital shaker) with wash buffer (0.05% Tween-20 in PBS). Coverslips were incubated in equilibration buffer (0.4% glucose, 2×SCC) for 5 mins and counter stained with 1 mg/ml DAPI (4′,6-diamidino-2-phenylindole; Life Technologies). Coverslips were mounted in glox buffer (3.7 mg/ml glucose oxidase, 1 U catalase) and imaged.

[6] = Ghost(3) cells infected with HIV-1 24 hours prior to Doxorubicin treatment
[7] = uninfected Ghost(3) cells, lethal dose of Doxorubicin (500 nM)

## COc1cccc2c1C(=O)c1c(O)c3c(c(O)c1C2=O)C[C@@](O)(C(=O)CO)C[C@@H]3O[C@H]1C[C@H](N)[C@H](O)[C@H](C)O1 [Doxorubicin]
[1]
  phosphorylation of p53 at Ser46: phosphorylation of both ATMpSer1981 and p53pSer46 in the nucleus within 8 hours; also recorded: Activated p53 dimers are detected
[2]; Ghost(3) cells infected with HIV-1 24 hours before the same duration of Doxorubicin treatment
  percentage cell survival: 60%
[2]; [6]
  apoptosis: do not undergo apoptosis
[2]; Ghost(3) cells that received Doxorubicin prior to HIV-1 infection
  apoptosis: underwent apoptosis; also recorded: do undergo apoptosis
[2]; Ghost(3) cells, Doxorubicin only (lethal dose), no HIV
  percentage cell survival: 32%
[2]; cells concurrently infected and treated with Maraviroc, Tenofovir or Raltegravir, Doxorubicin added 24 hours later
  apoptosis: the cells underwent apoptosis
[2]; [7]
  apoptosis: apoptosis at 48 hours; also recorded: by 24 hours, cells were apoptotic; also recorded: followed by apoptosis
[3]; [6]
  DSBs (H2A.XpSer139 staining): numerous DSBs
[3]; Ghost(3) cells infected with HIV-1 after exposure to Doxorubicin
  DSBs (H2A.XpSer139 staining): extensive H2A.XpSer139 staining
[3]; [7]
  H2A.X (pSer139) staining of DSBs: extensive H2A.X staining within 8 hours of treatment; also recorded: extensive H2A.XpSer139 staining
[4]
  cellular location of HuR: cytoplasmic HuR within 8 hours; also recorded: moved from the nucleus into the cytoplasm within 8 hours of treatment
[5]; Ghost(3) cells, drug only, no HIV infection
  cellular location of hnRNP-K: nuclear hnRNP-K within 2 hours; also recorded: detected in the nucleus of Doxorubicin-treated cells between 2 and 4 hours post-treatment; also recorded: nuclear hnRNPK within 2 hours
[5]; cells concurrently infected and treated with Maraviroc, Tenofovir or Raltegravir, Doxorubicin added afterwards
  cellular location of hnRNP-K: hnRNPK localized to the nucleus; also recorded: nuclear hnRNPK within 3 hours of chemical-induced DNA damage
